From the kinase profiling compilation of Christmann-Franck et al. (2016)

Columns and labels:
Test in all cases: KINOMEscan competition binding
Conditions in all cases: compound 0.5 µM
[1] = molecular target: GSK3A (human) (UniProt P49840)
[2] = molecular target: IGF1R (human) (UniProt P08069)
[3] = molecular target: PRKCE (human) (UniProt Q02156)
[4] = molecular target: TAOK3 (human) (UniProt Q9H2K8)
[5] = molecular target: CDK5 (human) (UniProt Q00535)
[6] = molecular target: MAPK8 (human) (UniProt P45983)
[7] = molecular target: PKN1 (human) (UniProt Q16512)
[8] = system: FLT3 (human), P36888 [D835Y]
[9] = molecular target: PRKX (human) (UniProt P51817)
PRKX (human), sequence (P51817 whole entry, looked up): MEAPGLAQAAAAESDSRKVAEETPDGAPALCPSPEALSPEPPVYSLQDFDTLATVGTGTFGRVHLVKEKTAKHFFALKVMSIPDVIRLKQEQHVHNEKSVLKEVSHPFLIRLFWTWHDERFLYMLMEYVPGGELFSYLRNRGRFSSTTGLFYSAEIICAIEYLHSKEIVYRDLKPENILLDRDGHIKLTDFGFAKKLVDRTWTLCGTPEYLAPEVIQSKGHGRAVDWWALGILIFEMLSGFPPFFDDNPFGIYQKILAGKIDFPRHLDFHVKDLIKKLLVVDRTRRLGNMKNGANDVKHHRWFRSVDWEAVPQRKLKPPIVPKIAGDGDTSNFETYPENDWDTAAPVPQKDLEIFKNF

[10] = molecular target: BMPR1B (human) (UniProt O00238)
BMPR1B (human), sequence (O00238 whole entry, looked up): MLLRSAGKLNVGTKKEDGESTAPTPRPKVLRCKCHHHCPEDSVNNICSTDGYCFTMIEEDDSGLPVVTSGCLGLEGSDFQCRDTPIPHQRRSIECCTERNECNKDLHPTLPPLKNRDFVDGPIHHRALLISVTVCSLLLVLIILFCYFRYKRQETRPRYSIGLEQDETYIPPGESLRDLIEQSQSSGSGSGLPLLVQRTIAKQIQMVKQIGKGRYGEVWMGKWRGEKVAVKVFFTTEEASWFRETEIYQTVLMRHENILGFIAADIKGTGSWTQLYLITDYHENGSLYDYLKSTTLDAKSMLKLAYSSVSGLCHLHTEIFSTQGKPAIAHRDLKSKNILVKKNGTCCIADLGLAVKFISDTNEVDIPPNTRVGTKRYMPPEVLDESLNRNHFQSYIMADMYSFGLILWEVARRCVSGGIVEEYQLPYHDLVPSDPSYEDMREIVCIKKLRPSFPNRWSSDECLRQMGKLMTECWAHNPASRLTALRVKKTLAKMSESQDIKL

[11] = molecular target: PRKCI (human) (UniProt P41743)
[12] = molecular target: CAMK2A (human) (UniProt Q9UQM7)
[13] = molecular target: PRPF4B (human) (UniProt Q13523)
[14] = molecular target: SRPK1 (human) (UniProt Q96SB4)
[15] = molecular target: MAP2K5 (human) (UniProt Q13163)
[16] = molecular target: FYN (human) (UniProt P06241)
[17] = molecular target: MAP3K3 (human) (UniProt Q99759)
[18] = molecular target: GSK3B (human) (UniProt P49841)
[19] = molecular target: STK38L (human) (UniProt Q9Y2H1)
[20] = molecular target: PHKG1 (human) (UniProt Q16816)
[21] = molecular target: BMP2K (human) (UniProt Q9NSY1)
[22] = molecular target: DAPK3 (human) (UniProt O43293)
[23] = molecular target: STK17A (human) (UniProt Q9UEE5)
STK17A (human), sequence (Q9UEE5 whole entry, looked up): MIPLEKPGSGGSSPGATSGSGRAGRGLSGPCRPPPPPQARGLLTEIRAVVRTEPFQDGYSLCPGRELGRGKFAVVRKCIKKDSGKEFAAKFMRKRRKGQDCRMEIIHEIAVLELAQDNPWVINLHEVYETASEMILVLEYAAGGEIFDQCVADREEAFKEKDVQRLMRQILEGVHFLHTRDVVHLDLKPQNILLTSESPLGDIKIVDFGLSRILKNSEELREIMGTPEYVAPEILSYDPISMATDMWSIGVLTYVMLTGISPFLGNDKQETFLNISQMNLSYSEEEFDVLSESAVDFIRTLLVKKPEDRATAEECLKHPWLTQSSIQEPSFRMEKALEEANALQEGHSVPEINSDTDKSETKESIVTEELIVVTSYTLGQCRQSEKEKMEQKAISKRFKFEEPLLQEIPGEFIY

[24] = molecular target: RPS6KA1 KD1 (human) (UniProt Q15418)
[25] = molecular target: MAPK1 (human) (UniProt P28482)
MAPK1 (human), sequence (P28482 whole entry, looked up): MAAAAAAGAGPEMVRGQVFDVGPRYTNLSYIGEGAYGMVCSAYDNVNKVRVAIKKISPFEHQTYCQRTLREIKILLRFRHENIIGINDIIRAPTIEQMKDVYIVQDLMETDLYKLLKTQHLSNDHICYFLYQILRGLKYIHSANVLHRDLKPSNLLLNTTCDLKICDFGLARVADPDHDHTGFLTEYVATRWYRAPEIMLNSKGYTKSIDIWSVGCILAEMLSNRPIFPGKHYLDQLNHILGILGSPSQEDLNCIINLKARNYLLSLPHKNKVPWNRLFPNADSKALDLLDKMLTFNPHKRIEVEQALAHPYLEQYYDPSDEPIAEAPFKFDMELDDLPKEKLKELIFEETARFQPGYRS

[26] = molecular target: AAK1 (human) (UniProt Q2M2I8)
[27] = molecular target: NEK9 (human) (UniProt Q8TD19)
[28] = molecular target: MAP3K13 (human) (UniProt O43283)
[29] = molecular target: CDK4 CCND3 (human) (UniProt P11802+P30281)
[30] = molecular target: CHUK (human) (UniProt O15111)
[31] = system: PIK3CA (human), P42336 [I800L]
[32] = molecular target: KDR (human) (UniProt P35968)
[33] = molecular target: BMPR1A (human) (UniProt P36894)
[34] = molecular target: MST1R (human) (UniProt Q04912)
MST1R (human), sequence (Q04912 whole entry, looked up): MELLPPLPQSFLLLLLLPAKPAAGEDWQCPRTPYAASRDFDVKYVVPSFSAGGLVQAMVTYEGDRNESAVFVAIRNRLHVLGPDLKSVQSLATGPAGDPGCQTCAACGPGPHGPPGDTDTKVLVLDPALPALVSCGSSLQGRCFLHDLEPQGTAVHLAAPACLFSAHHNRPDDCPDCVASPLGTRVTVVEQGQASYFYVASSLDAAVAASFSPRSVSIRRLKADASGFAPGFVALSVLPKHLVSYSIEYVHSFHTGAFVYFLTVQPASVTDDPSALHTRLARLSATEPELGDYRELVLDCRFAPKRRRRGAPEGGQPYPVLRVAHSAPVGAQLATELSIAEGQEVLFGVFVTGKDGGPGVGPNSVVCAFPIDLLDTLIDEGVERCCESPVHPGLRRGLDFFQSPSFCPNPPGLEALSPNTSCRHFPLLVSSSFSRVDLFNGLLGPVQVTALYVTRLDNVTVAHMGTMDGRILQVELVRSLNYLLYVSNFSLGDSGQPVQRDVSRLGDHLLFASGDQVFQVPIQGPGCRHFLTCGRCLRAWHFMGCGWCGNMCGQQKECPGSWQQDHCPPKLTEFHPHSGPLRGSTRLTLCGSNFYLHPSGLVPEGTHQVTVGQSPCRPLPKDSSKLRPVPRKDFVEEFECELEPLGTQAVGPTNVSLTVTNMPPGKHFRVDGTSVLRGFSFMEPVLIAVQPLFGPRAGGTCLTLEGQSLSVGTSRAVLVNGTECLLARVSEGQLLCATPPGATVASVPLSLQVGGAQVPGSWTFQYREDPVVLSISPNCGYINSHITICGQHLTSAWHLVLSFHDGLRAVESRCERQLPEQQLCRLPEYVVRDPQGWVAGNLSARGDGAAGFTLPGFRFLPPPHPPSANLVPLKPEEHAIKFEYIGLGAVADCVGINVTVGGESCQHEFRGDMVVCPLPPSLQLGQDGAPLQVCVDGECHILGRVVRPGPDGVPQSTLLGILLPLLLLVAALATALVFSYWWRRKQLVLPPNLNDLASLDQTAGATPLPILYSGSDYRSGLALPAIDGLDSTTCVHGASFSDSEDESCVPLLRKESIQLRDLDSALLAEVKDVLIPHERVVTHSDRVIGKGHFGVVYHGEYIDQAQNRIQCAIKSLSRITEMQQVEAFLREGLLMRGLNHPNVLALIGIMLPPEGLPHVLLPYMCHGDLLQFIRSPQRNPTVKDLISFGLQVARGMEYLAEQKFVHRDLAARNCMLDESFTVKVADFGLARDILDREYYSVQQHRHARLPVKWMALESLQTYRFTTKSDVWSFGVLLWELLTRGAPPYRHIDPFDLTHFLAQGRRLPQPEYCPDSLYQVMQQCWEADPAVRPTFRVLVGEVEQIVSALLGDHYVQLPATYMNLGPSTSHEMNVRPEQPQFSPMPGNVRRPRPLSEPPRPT

[35] = molecular target: IKBKE (human) (UniProt Q14164)
[36] = molecular target: TNNI3K (human) (UniProt Q59H18)
[37] = molecular target: YSK4 (human) (UniProt Q56UN5)
[38] = molecular target: CDKL2 (human) (UniProt Q92772)
[39] = molecular target: PIM3 (human) (UniProt Q86V86)
[40] = molecular target: ERBB4 (human) (UniProt Q15303)
ERBB4 (human), sequence (Q15303 whole entry, looked up): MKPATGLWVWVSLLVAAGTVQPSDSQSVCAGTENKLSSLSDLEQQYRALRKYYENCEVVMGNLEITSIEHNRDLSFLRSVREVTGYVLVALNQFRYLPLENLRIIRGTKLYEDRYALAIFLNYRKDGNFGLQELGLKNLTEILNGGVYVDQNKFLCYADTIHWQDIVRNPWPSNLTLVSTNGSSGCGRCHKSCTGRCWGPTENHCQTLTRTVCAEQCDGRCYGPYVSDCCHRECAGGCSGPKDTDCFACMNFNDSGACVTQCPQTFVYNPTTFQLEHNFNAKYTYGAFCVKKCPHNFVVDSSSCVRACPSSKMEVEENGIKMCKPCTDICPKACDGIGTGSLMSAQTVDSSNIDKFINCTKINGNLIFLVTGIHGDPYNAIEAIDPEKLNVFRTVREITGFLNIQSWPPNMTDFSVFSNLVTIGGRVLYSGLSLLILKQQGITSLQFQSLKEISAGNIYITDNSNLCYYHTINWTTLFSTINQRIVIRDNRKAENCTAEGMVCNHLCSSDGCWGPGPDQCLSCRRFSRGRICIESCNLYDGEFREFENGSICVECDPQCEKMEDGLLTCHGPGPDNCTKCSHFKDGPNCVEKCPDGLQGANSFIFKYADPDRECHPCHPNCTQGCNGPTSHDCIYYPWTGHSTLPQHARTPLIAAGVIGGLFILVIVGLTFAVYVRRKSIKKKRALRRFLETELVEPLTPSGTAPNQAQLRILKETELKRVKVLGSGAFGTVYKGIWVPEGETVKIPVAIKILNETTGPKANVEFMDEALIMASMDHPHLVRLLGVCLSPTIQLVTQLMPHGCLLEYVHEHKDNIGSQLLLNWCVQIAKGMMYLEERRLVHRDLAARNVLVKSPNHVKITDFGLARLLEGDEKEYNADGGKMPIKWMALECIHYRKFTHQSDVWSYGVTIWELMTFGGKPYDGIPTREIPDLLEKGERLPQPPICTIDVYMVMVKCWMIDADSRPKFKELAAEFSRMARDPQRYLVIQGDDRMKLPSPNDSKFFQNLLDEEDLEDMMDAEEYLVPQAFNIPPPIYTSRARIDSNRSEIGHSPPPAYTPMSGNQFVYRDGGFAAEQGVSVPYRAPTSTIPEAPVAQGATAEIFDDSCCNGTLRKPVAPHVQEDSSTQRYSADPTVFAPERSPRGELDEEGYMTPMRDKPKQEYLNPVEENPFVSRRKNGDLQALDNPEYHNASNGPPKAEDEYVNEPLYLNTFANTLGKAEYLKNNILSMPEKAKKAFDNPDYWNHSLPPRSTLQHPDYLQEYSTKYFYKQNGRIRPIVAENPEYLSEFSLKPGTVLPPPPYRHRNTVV

[41] = molecular target: DDR1 (human) (UniProt Q08345)
[42] = molecular target: CDKL1 (human) (UniProt Q00532)
CDKL1 (human), sequence (Q00532 whole entry, looked up): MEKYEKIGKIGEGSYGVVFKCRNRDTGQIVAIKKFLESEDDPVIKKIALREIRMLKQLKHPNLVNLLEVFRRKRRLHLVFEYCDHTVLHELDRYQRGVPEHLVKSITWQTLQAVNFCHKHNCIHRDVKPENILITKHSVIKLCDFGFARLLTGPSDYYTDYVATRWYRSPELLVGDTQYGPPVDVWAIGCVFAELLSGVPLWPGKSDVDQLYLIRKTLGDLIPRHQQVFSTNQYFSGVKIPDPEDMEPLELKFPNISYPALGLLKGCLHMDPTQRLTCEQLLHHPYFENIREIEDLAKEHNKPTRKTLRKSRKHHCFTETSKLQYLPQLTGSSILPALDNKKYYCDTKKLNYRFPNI

Cn1c2ccccc2c2c3c(c4c5ccccc5n(CCC#N)c4c21)CNC3=O
kinase still bound, per cent of control [1]: 100% | kinase still bound, per cent of control [2]: 85% | kinase still bound, per cent of control [3]: 66% | kinase still bound, per cent of control [4]: 12% | kinase still bound, per cent of control [5]: 61% | kinase still bound, per cent of control [6]: 18% | kinase still bound, per cent of control [7]: 9.4% | kinase still bound, per cent of control [8]: 0% | kinase still bound, per cent of control [9]: 53% | kinase still bound, per cent of control [10]: 56% | kinase still bound, per cent of control [11]: 86% | kinase still bound, per cent of control [12]: 27% | kinase still bound, per cent of control [13]: 12% | kinase still bound, per cent of control [14]: 5.6% | kinase still bound, per cent of control [15]: 58% | kinase still bound, per cent of control [16]: 92% | kinase still bound, per cent of control [17]: 2.1% | kinase still bound, per cent of control [18]: 81% | kinase still bound, per cent of control [19]: 66% | kinase still bound, per cent of control [20]: 0.1% | kinase still bound, per cent of control [21]: 3.4% | kinase still bound, per cent of control [22]: 75% | kinase still bound, per cent of control [23]: 71% | kinase still bound, per cent of control [24]: 36% | kinase still bound, per cent of control [25]: 100% | kinase still bound, per cent of control [26]: 0.55% | kinase still bound, per cent of control [27]: 100% | kinase still bound, per cent of control [28]: 33% | kinase still bound, per cent of control [29]: 42% | kinase still bound, per cent of control [30]: 88% | kinase still bound, per cent of control [31]: 19% | kinase still bound, per cent of control [32]: 82% | kinase still bound, per cent of control [33]: 73% | kinase still bound, per cent of control [34]: 100% | kinase still bound, per cent of control [35]: 99% | kinase still bound, per cent of control [36]: 100% | kinase still bound, per cent of control [37]: 0% | kinase still bound, per cent of control [38]: 26% | kinase still bound, per cent of control [39]: 8.9% | kinase still bound, per cent of control [40]: 82% | kinase still bound, per cent of control [41]: 100% | kinase still bound, per cent of control [42]: 81%
